Columns and labels:
Assay type in all cases: cell-based
[1] = test system: KRAS G12C mutant NSCLC cell line HOP-62; assay: IC50 shift experiment, cell proliferation (Cell Titer Glo), 144 h; settings: for IC50: Homo sapiens, TEAD inhibitor alone, 144 h, read-out: IC50 TEADi; for KRAS G12Ci No1 fold change vs 0.1 μM: IC50 shift of KRAS G12C inhibitor N°1, no TEADi vs TEAD inhibitor 0.1 μM; for KRAS G12Ci No1 fold change vs 1 μM: IC50 shift of KRAS G12C inhibitor N°1, no TEADi vs TEAD inhibitor 1 μM; for KRAS G12Ci No2 fold change vs 0.1 μM: IC50 shift of KRAS G12C inhibitor N°2, no TEADi vs TEAD inhibitor 0.1 μM; for KRAS G12Ci No2 fold change vs 1 μM: IC50 shift of KRAS G12C inhibitor N°2, no TEADi vs TEAD inhibitor 1 μM
Method: The KRAS G12C mutant NSCLC cell line HOP-62 was used for this study. Cells were seeded in 96 well plates at 1250 cells per well and incubated 24 hours at 37° C. and 5% CO2. The KRAS G12C inhibitors N°1 and N°2 were used at 10 concentrations and combined with TEAD inhibitors used at 2 concentrations. Compound dilution and distribution to cells was performed on the TECAN MCA384 robotic platform. […] Cell proliferation was measured using Cell Titer Glo from PROMEGA (luminescence). For each KRAS G12C inhibitor, IC50 values in these cell lines were determined in the absence or presence of TEAD inhibitors.

[2] = test system: H-2030 KRAS G12C mutant NSCLC cells; assay: Ray design combination experiment, cell proliferation (Cell Titer Glo), 144 h; settings: potentiation of KRAS G12C inhibitor N°1 IC50 by the TEAD inhibitor at 41 nM, Ki = potentiation index IC50ai/IC50a
Method: (§1) The NSCLC cell line H-2030 which carries a KRASG12C mutation was used for this study. H-2030 cells were seeded in 384 well plates at 250 cells per well and incubated 24 hours at 37° C. and 5% CO2. The KRAS G12C inhibitor N°1 used at 14 concentrations ranging from 10,000 nM to 0.006 nM was combined with TEAD inhibitors used at 18 concentrations ranging from 10,000 nM to 0.0001 nM, added to H-2030 cells and incubated for 144 hours at 37° C. and 5% CO2. Compound dilution and distribution to cells was performed on the TECAN MCA384 robotic platform. Cell proliferation was measured using Cell Titer Glo from PROMEGA (luminescence).
(§2) Three independent experiments with triplicates/experiment were performed and analyzed using the combination analysis software Combo2Screen. TEAD inhibitors were defined as non-active in this cell line, their effect on the KRAS G12C inhibitor was determined as an effect of potentiation and was quantified using the potentiation index based on the following equation: […]

[3] = test system: HOP-62 KRAS G12C mutant NSCLC cells; assay: Ray design combination experiment, cell proliferation (Cell Titer Glo), 96 h; settings: potentiation of KRAS G12C inhibitor N°1 IC50 by the TEAD inhibitor at 370 nM, Ki = potentiation index IC50ai/IC50a
Method: as §1, with “line HOP62” for “line H-2030”, “study. HO-P62” for “study. H-2030”, “at 300” for “at 250”, “to HOP-62” for “to H-2030”, “for 96” for “for 144”
as §2, with “triplicates per experiment” for “triplicates/experiment”

| SMILES | IC50 [1] | KRAS G12Ci No1 fold change vs 0.1 μM [1] | KRAS G12Ci No1 fold change vs 1 μM [1] | KRAS G12Ci No2 fold change vs 0.1 μM [1] | KRAS G12Ci No2 fold change vs 1 μM [1] | Mean fold potentiation 1/Ki [2] | Mean fold potentiation 1/Ki [3] |
| --- | --- | --- | --- | --- | --- | --- | --- |
| C=CC(=O)Nc1ccc2c(c1)C(O[C@H]1CC[C@H](C(F)(F)F)CC1)CC2 (relative stereo) [TEAD inhibitor N°6, N-(3-(((trans)-4-(trifluoromethyl)cyclohexyl)oxy)-2,3-dihydro-1H-inden-5-yl) acrylamide] | > 10 µM | 4 fold | 6 fold | 6 fold | 8 fold | – | – |
| C=CC(=O)Nc1ccc(C)c(Oc2ccc(Cl)cc2)c1 [TEAD inhibitor N°1, N-(3-(4-chlorophenoxy)-4-methylphenyl) acrylamide, reference compound] | 8.8 µM | 8 fold | 9 fold | – | – | 33 fold | 8 fold |
| C=CC(=O)Nc1ccc2c(c1)CCC2Nc1cccc(C(F)(F)F)c1 (stereo not shown) [TEAD inhibitor N°2, N-(1-((3-(trifluoromethyl)phenyl)amino)-2,3-dihydro-1H-inden-5-yl) acrylamide] | – | – | – | – | – | 18 fold | 8 fold |
| C=CC(=O)Nc1ccc2c(ccn2-c2ccc(C(F)(F)F)cc2)c1 [TEAD inhibitor N°3, N-(1-(4-(trifluoromethyl)phenyl)-1H-indol-5-yl) acrylamide] | > 10 µM | 6 fold | 7 fold | 9 fold | 8 fold | – | – |
| C=CC(=O)Nc1ccc2c(c1)c(COC)cn2-c1ccc(C(F)(F)F)cc1 [TEAD inhibitor N°4, N-(3-(methoxymethyl)-1-(4-(trifluoromethyl)phenyl)-1H-indol-5-yl) acrylamide] | > 10 µM | 5 fold | 10 fold | 8 fold | 12 fold | – | – |
| C=CC(=O)Nc1ccc2c(c1)c(C)cn2Cc1cccc(C(F)(F)F)c1 [TEAD inhibitor N°5, N-(3-methyl-1-(3-(trifluoromethyl)benzyl)-1H-indol-5-yl) acrylamide] | > 10 µM | 4 fold | 7 fold | 8 fold | 13 fold | – | – |
| C=CC(=O)Nc1ccc2c(c1)C(Nc1ccc(F)c(F)c1)CC2 (stereo not shown) [TEAD inhibitor N°7, N-(3-((3,4-difluorophenyl)amino)-2,3-dihydro-1H-inden-5-yl) acrylamide] | > 10 µM | 6 fold | 13 fold | 9 fold | 21 fold | – | – |
| C=CC(=O)Nc1ccc2c(c1)C(Oc1ccc(C(F)(F)F)cc1)CC2 (stereo not shown) [TEAD inhibitor N°8, N-(3-(4-(trifluoromethyl)phenoxy)-2,3-dihydro-1H-inden-5-yl) acrylamide] | > 10 µM | 6 fold | 9 fold | 10 fold | 12 fold | – | – |

Source: US20250295664A1, “THERAPEUTIC COMBINATION OF KRAS G12C INHIBITOR AND TEAD INHIBITOR” (SANOFI, priority 2022, published 2025)
